Reference: PubChem BioAssay (NCI)
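Values below derive from 48-hour exposures of cells grown in 96-well plates, with endpoints linearly interpolated between the two concentrations bracketing the appropriate inhibition level. Here, GI50 denotes the concentration required for 50% inhibition of growth. The concentration for full growth arrest is given as TGI.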

Legend:
Test in all cases: DTP human tumour cell line panel, 48 h
[1] = system: COLO 205 colon
[2] = system: DU-145 prostate
[3] = system: LOX IMVI melanoma
[4] = system: SF-268 CNS
[5] = system: SF-539 CNS
[6] = system: SK-MEL-28 melanoma
[7] = system: SNB-19 CNS
[8] = system: NCI-H226 lung
[9] = system: SK-OV-3 ovarian
[10] = system: RXF 393 renal

Structure (SMILES) | TGI [1] [µM] | TGI [2] [µM] | TGI [3] [µM] | TGI [4] [µM] | TGI [5] [µM] | TGI [6] [µM] | TGI [7] [µM] | TGI [8] [µM] | TGI [9] [µM] | GI50 [2] [µM] | GI50 [3] [µM] | GI50 [10] [µM] | TGI [10] [µM] | GI50 [4] [µM] | GI50 [9] [µM] | GI50 [7] [µM] | GI50 [8] [µM]
NC(CC(=O)OCc1ccccc1)C(=O)OCc1ccccc1 (configuration not stated) | > 100 | > 100 | > 100 | > 100 | > 100 | > 100 | > 100 | – | – | – | – | – | – | – | – | – | –
CCOC(=O)CN=c1nc(SC)sc2c(C(=O)OCC)nc(Sc3ccccc3)n12 | > 100 | – | > 100 | > 100 | – | – | – | > 100 | > 100 | – | – | – | – | – | – | – | –
CCOC(=O)c1cc(/C(=N\O)c2cc(OC)c(OC)c(OC)c2)n2cc(C)cc(C)c12 | – | > 100 | 7.68 | > 100 | – | – | > 100 | – | 4.8 | 3.67 | 2.4 | 1.95 | 5.26 | 3.9 | 1.89 | 4.57 | –
C=CCCCCCCCCC(=O)NS(=O)(=O)c1ccccc1 | > 100 | – | > 100 | > 100 | > 100 | > 100 | > 100 | > 100 | > 100 | – | – | – | > 100 | – | – | – | –
O=C(O)CP(=S)(S)c1ccccc1 (configuration not stated) | > 100 | – | > 100 | > 100 | > 100 | > 100 | > 100 | > 100 | > 100 | – | – | – | > 100 | – | – | – | –
Cc1noc(C)c1CCCOC1COc2ccccc2OCCOCCOc2ccccc2OC1 | > 100 | – | > 100 | > 100 | > 100 | > 100 | > 100 | > 100 | > 100 | – | – | – | > 100 | – | – | – | –
CC12CCCC(O)C1CCC1=CC3(CCC12)SCCS3 (configuration not stated) | > 10 | > 10 | > 10 | > 10 | – | > 10 | > 10 | – | > 10 | – | – | – | – | – | – | – | –
CC[O-].CC[O-].O=C1c2ccccc2C(=O)c2c(O)ccc([O-])c21.O=C1c2ccccc2C(=O)c2c(O)ccc([O-])c21.[Ti+4] | > 100 | – | > 100 | > 100 | > 100 | > 100 | > 100 | > 100 | > 100 | – | – | – | 90.4 | – | – | – | > 100
O=c1cccccc1NCCCNc1cccccc1=O | > 100 | – | > 100 | > 100 | > 100 | – | > 100 | > 100 | > 100 | – | – | – | > 100 | – | – | – | –
NC1=NN(c2ccccc2)C(=O)C1C(=O)CCC(=O)Nc1cccc(C(F)(F)F)c1 (configuration not stated) | > 100 | – | > 100 | > 100 | > 100 | > 100 | > 100 | > 100 | > 100 | – | – | – | > 100 | – | – | – | –
COC(=O)c1cc(Br)c(Br)n1C | > 100 | – | > 100 | > 100 | > 100 | > 100 | > 100 | > 100 | > 100 | – | – | – | > 100 | – | – | – | –
O=C1c2ccccc2-c2c1c1ccccc1c(=O)n2Cc1ccccc1 | > 100 | > 100 | > 100 | > 100 | > 100 | > 100 | – | > 100 | > 100 | – | – | – | – | – | – | – | –
